Activity calls are given as the source filed them. The rule behind the calls is not given here.
Test system: CCRIS mutagenicity, Ames/micronucleus/aberration tests
Experiment: CCRIS mutagenicity studies
[1] = Test System: AMES SALMONELLA TYPHIMURIUM, Strain/Indicator: TA97, Metabolic Activation: NONE, Method: PREINCUBATION
[2] = Test System: AMES SALMONELLA TYPHIMURIUM, Strain/Indicator: TA98, Metabolic Activation: NONE, Method: PREINCUBATION
[3] = Test System: AMES SALMONELLA TYPHIMURIUM, Strain/Indicator: TA100, Metabolic Activation: NONE, Method: PREINCUBATION
[4] = Test System: AMES SALMONELLA TYPHIMURIUM, Strain/Indicator: TA1535, Metabolic Activation: NONE, Method: PREINCUBATION
[5] = Test System: AMES SALMONELLA TYPHIMURIUM, Strain/Indicator: TA1537, Metabolic Activation: NONE, Method: PREINCUBATION

Measured: mutagenic call

Oc1cc(Cl)c(Cl)c(Cl)c1
inactive: End Point: IN VITRO CHROMOSOMAL ABERRATIONS, Test System: CHINESE HAMSTER LUNG CELLS (CHL), Metabolic Activation: RAT, LIVER, S-9, KC-400 inactive; negative; authors describe results as equivocal | End Point: IN VITRO CHROMOSOMAL ABERRATIONS, Test System: CHINESE HAMSTER OVARY CELLS (CHO), Metabolic Activation: NONE inactive; negative | End Point: IN VITRO CHROMOSOMAL ABERRATIONS, Test System: CHINESE HAMSTER OVARY CELLS (CHO), Metabolic Activation: RAT, LIVER, S-9, AROCLOR 1254 inactive; negative | Test System: AMES SALMONELLA TYPHIMURIUM, Strain/Indicator: TA97, Metabolic Activation: HAMSTER, LIVER, S-9, AROCLOR 1254 (10%), Method: PREINCUBATION inactive; negative | Test System: AMES SALMONELLA TYPHIMURIUM, Strain/Indicator: TA97, Metabolic Activation: HAMSTER, LIVER, S-9, AROCLOR 1254 (30%), Method: PREINCUBATION inactive; negative | [1] inactive; negative | Test System: AMES SALMONELLA TYPHIMURIUM, Strain/Indicator: TA97, Metabolic Activation: RAT, LIVER, S-9, AROCLOR 1254 (10%), Method: PREINCUBATION inactive; negative | Test System: AMES SALMONELLA TYPHIMURIUM, Strain/Indicator: TA97, Metabolic Activation: RAT, LIVER, S-9, AROCLOR 1254 (30%), Method: PREINCUBATION inactive; negative | Test System: AMES SALMONELLA TYPHIMURIUM, Strain/Indicator: TA98, Metabolic Activation: HAMSTER, LIVER, S-9, AROCLOR 1254 (10%), Method: PREINCUBATION inactive; negative | Test System: AMES SALMONELLA TYPHIMURIUM, Strain/Indicator: TA98, Metabolic Activation: HAMSTER, LIVER, S-9, AROCLOR 1254 (30%), Method: PREINCUBATION inactive; negative | [2] inactive; negative | Test System: AMES SALMONELLA TYPHIMURIUM, Strain/Indicator: TA98, Metabolic Activation: RAT, LIVER, S-9, AROCLOR 1254 (10%), Method: PREINCUBATION inactive; negative | Test System: AMES SALMONELLA TYPHIMURIUM, Strain/Indicator: TA98, Metabolic Activation: RAT, LIVER, S-9, AROCLOR 1254 (30%), Method: PREINCUBATION inactive; negative | Test System: AMES SALMONELLA TYPHIMURIUM, Strain/Indicator: TA100, Metabolic Activation: HAMSTER, LIVER, S-9, AROCLOR 1254 (10%), Method: PREINCUBATION inactive; negative | Test System: AMES SALMONELLA TYPHIMURIUM, Strain/Indicator: TA100, Metabolic Activation: HAMSTER, LIVER, S-9, AROCLOR 1254 (30%), Method: PREINCUBATION inactive; negative | [3] inactive; negative | Test System: AMES SALMONELLA TYPHIMURIUM, Strain/Indicator: TA100, Metabolic Activation: RAT, LIVER, S-9, AROCLOR 1254 (10%), Method: PREINCUBATION inactive; negative | Test System: AMES SALMONELLA TYPHIMURIUM, Strain/Indicator: TA100, Metabolic Activation: RAT, LIVER, S-9, AROCLOR 1254 (30%), Method: PREINCUBATION inactive; negative | Test System: AMES SALMONELLA TYPHIMURIUM, Strain/Indicator: TA1535, Metabolic Activation: HAMSTER, LIVER, S-9, AROCLOR 1254 (10%), Method: PREINCUBATION inactive; negative | Test System: AMES SALMONELLA TYPHIMURIUM, Strain/Indicator: TA1535, Metabolic Activation: HAMSTER, LIVER, S-9, AROCLOR 1254 (30%), Method: PREINCUBATION inactive; negative | [4] inactive; negative | Test System: AMES SALMONELLA TYPHIMURIUM, Strain/Indicator: TA1535, Metabolic Activation: RAT, LIVER, S-9, AROCLOR 1254 (10%), Method: PREINCUBATION inactive; negative | Test System: AMES SALMONELLA TYPHIMURIUM, Strain/Indicator: TA1535, Metabolic Activation: RAT, LIVER, S-9, AROCLOR 1254 (30%), Method: PREINCUBATION inactive; negative | Test System: AMES SALMONELLA TYPHIMURIUM, Strain/Indicator: TA1537, Metabolic Activation: HAMSTER, LIVER, S-9, AROCLOR 1254 (30%), Method: PREINCUBATION inactive; negative | [5] inactive; negative | Test System: AMES SALMONELLA TYPHIMURIUM, Strain/Indicator: TA1537, Metabolic Activation: RAT, LIVER, S-9, AROCLOR 1254 (30%), Method: PREINCUBATION inactive; negative

CCN(CC)c1ccccc1
inactive: Test System: AMES SALMONELLA TYPHIMURIUM, Strain/Indicator: TA97, Metabolic Activation: HAMSTER, LIVER, S-9, AROCLOR 1254 (10 OR 30%), Method: PREINCUBATION inactive; negative | [1] inactive; negative | Test System: AMES SALMONELLA TYPHIMURIUM, Strain/Indicator: TA97, Metabolic Activation: RAT, LIVER, S-9, AROCLOR 1254 (10 OR 30%), Method: PREINCUBATION inactive; negative | Test System: AMES SALMONELLA TYPHIMURIUM, Strain/Indicator: TA98, Metabolic Activation: HAMSTER, LIVER, S-9, AROCLOR 1254 (10 OR 30%), Method: PREINCUBATION inactive; negative | Test System: AMES SALMONELLA TYPHIMURIUM, Strain/Indicator: TA98, Metabolic Activation: HAMSTER, LIVER, S-9, PHENOBARBITAL AND BETA-NAPHTHOFLAVONE, Method: PREINCUBATION inactive; negative | [2] inactive; negative | Test System: AMES SALMONELLA TYPHIMURIUM, Strain/Indicator: TA98, Metabolic Activation: RAT, LIVER, S-9, AROCLOR 1254 (10 OR 30%), Method: PREINCUBATION inactive; negative | Test System: AMES SALMONELLA TYPHIMURIUM, Strain/Indicator: TA100, Metabolic Activation: HAMSTER, LIVER, S-9, AROCLOR 1254 (10 OR 30%), Method: PREINCUBATION inactive; negative | Test System: AMES SALMONELLA TYPHIMURIUM, Strain/Indicator: TA100, Metabolic Activation: HAMSTER, LIVER, S-9, PHENOBARBITAL AND BETA-NAPHTHOFLAVONE, Method: PREINCUBATION inactive; negative | [3] inactive; negative | Test System: AMES SALMONELLA TYPHIMURIUM, Strain/Indicator: TA100, Metabolic Activation: RAT, LIVER, S-9, AROCLOR 1254 (10 OR 30%), Method: PREINCUBATION inactive; negative | Test System: AMES SALMONELLA TYPHIMURIUM, Strain/Indicator: TA102, Metabolic Activation: HAMSTER, LIVER, S-9, PHENOBARBITAL AND BETA-NAPHTHOFLAVONE, Method: PREINCUBATION inactive; negative | Test System: AMES SALMONELLA TYPHIMURIUM, Strain/Indicator: TA102, Metabolic Activation: NONE, Method: PREINCUBATION inactive; negative | Test System: AMES SALMONELLA TYPHIMURIUM, Strain/Indicator: TA104, Metabolic Activation: HAMSTER, LIVER, S-9, PHENOBARBITAL AND BETA-NAPHTHOFLAVONE, Method: PREINCUBATION inactive; negative | Test System: AMES SALMONELLA TYPHIMURIUM, Strain/Indicator: TA104, Metabolic Activation: NONE, Method: PREINCUBATION inactive; negative | Test System: AMES SALMONELLA TYPHIMURIUM, Strain/Indicator: TA1535, Metabolic Activation: HAMSTER, LIVER, S-9, AROCLOR 1254 (10 OR 30%), Method: PREINCUBATION inactive; negative | Test System: AMES SALMONELLA TYPHIMURIUM, Strain/Indicator: TA1535, Metabolic Activation: HAMSTER, LIVER, S-9, PHENOBARBITAL AND BETA-NAPHTHOFLAVONE, Method: PREINCUBATION inactive; negative | [4] inactive; negative | Test System: AMES SALMONELLA TYPHIMURIUM, Strain/Indicator: TA1535, Metabolic Activation: RAT, LIVER, S-9, AROCLOR 1254 (10 OR 30%), Method: PREINCUBATION inactive; negative | Test System: AMES SALMONELLA TYPHIMURIUM, Strain/Indicator: TA1537, Metabolic Activation: HAMSTER, LIVER, S-9, PHENOBARBITAL AND BETA-NAPHTHOFLAVONE, Method: PREINCUBATION inactive; negative | [5] inactive; negative | Test System: E. COLI, Strain/Indicator: WP2UVRA/PKM101, Metabolic Activation: HAMSTER, LIVER, S-9, PHENOBARBITAL AND BETA-NAPHTHOFLAVONE, Method: PREINCUBATION inactive; negative | Test System: E. COLI, Strain/Indicator: WP2UVRA/PKM101, Metabolic Activation: NONE, Method: PREINCUBATION inactive; negative | Test System: E. COLI, Strain/Indicator: WP2UVRA, Metabolic Activation: HAMSTER, LIVER, S-9, PHENOBARBITAL AND BETA-NAPHTHOFLAVONE, Method: PREINCUBATION inactive; negative | Test System: E. COLI, Strain/Indicator: WP2UVRA, Metabolic Activation: NONE, Method: PREINCUBATION inactive; negative | Test System: UDS RODENT HEPATOCYTES, Strain/Indicator: THY INCORP (NON-S-PHASE), Metabolic Activation: NONE, Method: AUTORADIOGRAPHY inactive; negative

From PubChem BioAssay AID1259407 (Chemical Carcinogenesis Research Information System (CCRIS), 2018)
